In data set [1] the target is T1, ApaH (bis(5′‐nucleosyl)‐tetraphosphatase) (Escherichia coli, UniProt P05637).
T1 sequence (P05637 1-280): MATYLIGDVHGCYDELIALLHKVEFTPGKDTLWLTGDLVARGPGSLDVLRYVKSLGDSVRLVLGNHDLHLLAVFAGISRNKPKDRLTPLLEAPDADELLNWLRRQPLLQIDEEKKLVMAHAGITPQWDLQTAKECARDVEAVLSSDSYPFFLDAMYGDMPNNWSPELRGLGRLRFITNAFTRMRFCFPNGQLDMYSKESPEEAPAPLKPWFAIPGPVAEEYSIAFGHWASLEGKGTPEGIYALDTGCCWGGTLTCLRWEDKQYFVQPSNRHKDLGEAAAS
The experiment in a line: LC-MS assay of Ap4A hydrolysis by […] ApaH; pppGpp is also hydrolysed to pGpp (KM […]). The class given is biochemical.

Data set [2] has as its target T1, ApaH (bis(5′‐nucleosyl)‐tetraphosphatase). The experiment in a line: inhibition of Ap4A hydrolysis by ApaH; pGpp is also the product of pppGpp cleavage. The data set is classed as biochemical.
Data set [3] has the same target. The experiment in a line: LC-MS assay of Ap4A hydrolysis by […] ApaH. The class given is biochemical.
Substrate in the data set “purified protein”: Nc1nc2c(ncn2[C@@H]2O[C@H](COP(=O)(O)OP(=O)(O)OP(=O)(O)O)[C@@H](O)[C@H]2O)c(=O)[nH]1
The data set can be described thus: purified protein. The data set is classed as biochemical, Escherichia coli. The conditions noted are these: Co2+.

What is called IC50 is the concentration needed to halve the response being measured. Broadly, the Km is the concentration of substrate that gives half-maximal velocity.

For `Nc1nc2c(ncn2[C@@H]2O[C@H](COP(=O)(O)OP(=O)(O)OP(=O)(O)O)[C@@H](OP(=O)(O)OP(=O)(O)O)[C@H]2O)c(=O)[nH]1` [pppGpp], the IC50 in data set [1] stood at 8 ± 3 µM. `Nc1nc2c(ncn2[C@@H]2O[C@H](COP(=O)(O)O)[C@@H](OP(=O)(O)OP(=O)(O)O)[C@H]2O)c(=O)[nH]1` [pGpp] registered an IC50 in data set [2] of 190 ± 30 µM. In turn, `Nc1nc2c(ncn2[C@@H]2O[C@H](COP(=O)(O)OP(=O)(O)O)[C@@H](OP(=O)(O)OP(=O)(O)O)[C@H]2O)c(=O)[nH]1` [ppGpp] showed an IC50 in data set [3] of 21 ± 7 µM.

B1: ApaH (bis(5′‐nucleosyl)‐tetraphosphatase) (Escherichia coli K-12) (protein)
chain: MATYLIGDVHGCYDELIALLHKVEFTPGKDTLWLTGDLVARGPGSLDVLRYVKSLGDSVRLVLGNHDLHLLAVFAGISRNKPKDRLTPLLEAPDADELLNWLRRQPLLQIDEEKKLVMAHAGITPQWDLQTAKECARDVEAVLSSDSYPFFLDAMYGDMPNNWSPELRGLGRLRFITNAFTRMRFCFPNGQLDMYSKESPEEAPAPLKPWFAIPGPVAEEYSIAFGHWASLEGKGTPEGIYALDTGCCWGGTLTCLRWEDKQYFVQPSNRHKDLGEAAAS
Turning to B1, in “purified protein”, the Michaelis constant (Km) came out at 13 ± 5 µM.

Source of the values: publication PMC9310846, “Photoaffinity Capture Compounds to Profile the Magic Spot Nucleotide Interactomes” (Angewandte Chemie (International Ed. in English), 2022).
